Reference: paper PMC3023147 (Protein & cell, 2010)

Molecular target: T1, mTAT (mouse tyrosine aminotransferase) (Mus musculus, UniProt Q8QZR1)
T1 sequence (Q8QZR1 41-442): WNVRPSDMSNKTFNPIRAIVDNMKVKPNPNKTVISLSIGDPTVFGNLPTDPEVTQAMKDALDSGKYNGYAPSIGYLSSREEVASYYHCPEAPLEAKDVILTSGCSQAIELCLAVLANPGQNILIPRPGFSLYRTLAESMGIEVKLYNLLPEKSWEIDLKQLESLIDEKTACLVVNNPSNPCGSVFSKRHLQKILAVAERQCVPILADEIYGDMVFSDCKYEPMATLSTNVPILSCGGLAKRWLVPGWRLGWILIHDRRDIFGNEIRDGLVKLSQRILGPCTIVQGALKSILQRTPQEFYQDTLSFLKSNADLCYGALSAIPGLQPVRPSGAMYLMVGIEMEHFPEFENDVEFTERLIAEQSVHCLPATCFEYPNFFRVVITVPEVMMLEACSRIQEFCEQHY
Test: X-ray crystal structure, […] Å
Assay type: binding
Conditions: covalent; internal Schiff base with Lys280; pH 6.8

With `Cc1ncc(COP(=O)(O)O)c(C=O)c1O` [PLP] the “X-ray crystal structure, 2.9 Å” value was “Residual electron density clearly revealed the presence of covalently bound PLP in the active center”.
